Measured values as given in US20150224177A1 (priority 2014, published 2015).
≈ marks a conversion by molar mass, not a printed value. Read-outs that look alike come from different tables or passages of the source.

Tests used:
[1] = tested on: B. pseudomallei strains 1026b and MSHR 305; format: cell-based, Burkholderia pseudomallei
Bacillus anthracis = format: cell-based
Burkholderia mallei = experiment: microbe, parasite or virus in culture; format: cell-based; conditions: for MIC: Burkholderia mallei
B. pseudomallei isolates = experiment: microbe, parasite or virus in culture; format: cell-based, Burkholderia pseudomallei
Yersinia pestis = experiment: microbe, parasite or virus in culture; format: cell-based; conditions: for MIC: Yersinia pestis
[2] = read-out: MIC values (limit of detection) for OSCN^− with and without bLF
[3] = read-out: Minimal Inhibitory Concentration

SMILES: N#CSO [OSCN^−, hypothiocyanite]
- bacterial counts (limit of detection) through 6 h post inoculation [1]: < 33 CFU/mL
- bactericidal effect, overall result in words [1]: substantial bactericidal effect
- detectable CFUs from T2h to T6h [1]: no detectable CFUs
- growth at T24h [1]: no MSHR 305 growth was detected
- kill curve: evolution of microbial load during time [1]: immediate decrease of microbial load after 2 hours
- reduction at T24h as compared with the untreated controls [1]: 1.5 to 2 log10
- reduction at T24h compared with the untreated control [1]: ~2.5 log10
- reduction of final bacterial concentration at T24h as compared with the untreated controls [1]: at least 1.5 log10
- inhibition of growth, result in words (Bacillus anthracis): MICs at or below the detection limit
- inhibition of growth, result in words (Burkholderia mallei): very effective against both strains tested
- MIC (Burkholderia mallei; [2]): ≤ 25.9 µg/mL
- MIC (Burkholderia mallei; [3]): ≤ 25.9 µg/mL
- concentration of OSCN^− alone that inhibited all isolates (B. pseudomallei isolates): less than 63.3 μg/mL
- inhibition of growth, overall result in words (B. pseudomallei isolates): effective in vitro to inhibit the growth
- MIC (B. pseudomallei isolates; Burkholderia pseudomallei, NCTC13392, read-out: Minimal Inhibitory Concentration): 48.7 to 61.2 µg/mL (≈ 649 to 815 µM)
- inhibition of growth, result in words (Yersinia pestis): very effective against both strains tested
- MIC (Yersinia pestis; [2]): ≤ 30.3 µg/mL
- MIC (Yersinia pestis; [3]): ≤ 30.3 µg/mL
